Source: patent US20150291598A1 (NOVARTIS AG, priority 2012, published 2015)

What follows are compounds tested on P. falciparum (NF54 or 3D7 strain) (assay: Assay for P. falciparum proliferation in infected human blood cells (SYBR Green)). Conditions: Plasmodium falciparum, Erythrocyte, 72 h, NF54 or 3D7 infected human erythrocytes, 72 hours; read-out: EC50 (nM), inhibitory efficacy in delaying P. falciparum proliferation in infected human blood cells.
Type: cell-based, Plasmodium falciparum
Summary of the method: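 Infected erythrocytes (NF54 or 3D7; final 2.5% hematocrit, 0.3% parasitemia) were incubated with compounds for 72 h at 37 °C in low oxygen (3% O2, 4% CO2, 93% N2).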

`CN(C(=O)c1cn2c(-c3ccc(Cl)cn3)cnc2cn1)c1ccc(C#N)cc1` [Compound 196, 3-(5-chloropyridin-2-yl)-N-(4-cyanophenyl)-N-methylimidazo[1,2-a]pyrazine-6-carboxamide] and `Cc1cccc(-c2cnc3cnc(C(=O)N(C)c4ccc(C#N)cc4)cn23)c1` [Compound 199, N-(4-cyanophenyl)-N-methyl-3-(3-methylphenyl)imidazo[1,2-a]pyrazine-6-carboxamide] are within 1.5-fold of each other in EC50: 9350 nM for the first, 7320 nM for the second.

Compared with `CN(C(=O)c1cn2c(-c3ccc(S(=O)(=O)N(C)C)cc3)cnc2cn1)c1ccc(C#N)cc1` [Compound 197, N-(4-cyanophenyl)-3-[4-(dimethylsulfamoyl)phenyl]-N-methylimidazo[1,2-a]pyrazine-6-carboxamide], `CN(C(=O)c1cn2c(-c3ccc(C#N)cc3)cnc2cn1)c1ccc(S(C)(=O)=O)cc1` [Compound 232, 3-(4-cyanophenyl)-N-(4-methanesulfonylphenyl)-N-methylimidazo[1,2-a]pyrazine-6-carboxamide] is lower in EC50: > 10000 nM for the first, 3990 nM for the second.

First: CC1CCN(c2nc(-c3cnc4cnc(C(=O)N(C)c5ccc(C#N)cc5)cn34)cs2)CC1 [Compound 198, N-(4-cyanophenyl)-N-methyl-3-[2-(4-methylpiperidin-1-yl)-1,3-thiazol-4-yl]imidazo[1,2-a]pyrazine-6-carboxamide]
Second: CN(C(=O)c1cn2c(-c3cnc(N4CCCC4=O)cn3)cnc2cn1)c1ccc(C#N)cc1 [Compound 211, N-(4-cyanophenyl)-N-methyl-3-[5-(2-oxopyrrolidin-1-yl)pyrazin-2-yl]imidazo[1,2-a]pyrazine-6-carboxamide]
The EC50 of the first is higher: > 10000 nM for the first, 9390 nM for the second. The second is the more potent here.

First: CN(C(=O)c1cn2c(-c3cn[nH]c3)cnc2cn1)c1ccc(C#N)cc1 [Compound 200, N-(4-cyanophenyl)-N-methyl-3-(1H-pyrazol-4-yl)imidazo[1,2-a]pyrazine-6-carboxamide]
Second: CN(C(=O)c1cn2c(-c3cnc4c(c3)ncn4C)cnc2cn1)c1ccc(C#N)cc1 [Compound 203, N-(4-cyanophenyl)-N-methyl-3-{3-methyl-3H-imidazo[4,5-b]pyridin-6-yl}imidazo[1,2-a]pyrazine-6-carboxamide]
The EC50 of the first is higher: > 10000 nM for the first, 6490 nM for the second. The second is the more potent here.

First: CN1CCc2cc(-c3cnc4cnc(C(=O)N(C)c5ccc(C#N)cc5)cn34)ccc21 [Compound 201, N-(4-cyanophenyl)-N-methyl-3-(1-methyl-2,3-dihydro-1H-indol-5-yl)imidazo[1,2-a]pyrazine-6-carboxamide]
Second: CN(C(=O)c1cn2c(-c3ccc4c(c3)CC(=O)N4)cnc2cn1)c1ccc(C#N)cc1 [Compound 204, N-(4-cyanophenyl)-N-methyl-3-(2-oxo-2,3-dihydro-1H-indol-5-yl)imidazo[1,2-a]pyrazine-6-carboxamide]
The EC50 of the first is 6-fold lower: 1080 nM for the first, 6510 nM for the second.

First: CN(C(=O)c1cn2c(-c3ccc4nonc4c3)cnc2cn1)c1ccc(C#N)cc1 [Compound 202, 3-(2,1,3-benzoxadiazol-5-yl)-N-(4-cyanophenyl)-N-methylimidazo[1,2-a]pyrazine-6-carboxamide]
Second: CN(C(=O)c1cn2c(-c3ccc(-c4ccnn4C)cc3)cnc2cn1)c1ccc(C#N)cc1 [Compound 208, N-(4-cyanophenyl)-N-methyl-3-[4-(1-methyl-1H-pyrazol-5-yl)phenyl]imidazo[1,2-a]pyrazine-6-carboxamide]
The EC50 of the first is higher: > 10000 nM for the first, 724 nM for the second.

Compared with `CN(C(=O)c1cn2c(-c3ccc4c(cnn4C)c3)cnc2cn1)c1ccc(S(C)(=O)=O)cc1` [Compound 205, N-(4-methanesulfonylphenyl)-N-methyl-3-(1-methyl-1H-indazol-5-yl)imidazo[1,2-a]pyrazine-6-carboxamide], `CN(C(=O)c1cn2c(-c3ccc(OC(F)F)cc3)cnc2cn1)c1ccc(S(C)(=O)=O)cc1` [Compound 209, 3-[4-(difluoromethoxy)phenyl]-N-(4-methanesulfonylphenyl)-N-methylimidazo[1,2-a]pyrazine-6-carboxamide] is 2.8-fold lower in EC50: 7450 nM for the first, 2700 nM for the second. The second is the more potent here.

Going from `CN(C(=O)c1cn2c(-c3ccc(C(F)(F)F)cc3)cnc2cn1)c1ccc(-n2ccc(C(F)(F)F)n2)cc1` [Compound 206, -methyl-N-{4-[3-(trifluoromethyl)-1H-pyrazol-1-yl]phenyl}-3-[4-(trifluoromethyl)phenyl]imidazo[1,2-a]pyrazine-6-carboxamide] to `CN(C(=O)c1cn2c(-c3ccc(C(F)(F)F)cc3)cnc2cn1)c1ccc(Br)cc1` [Compound 215, N-(4-bromophenyl)-N-methyl-3-[4-(trifluoromethyl)phenyl]imidazo[1,2-a]pyrazine-6-carboxamide], the EC50 falls from > 9760 nM to 86 nM.

Going from `CN(C)Cc1ccc(-c2cnc3cnc(C(=O)N(C)c4ccc(C#N)cc4)cn23)cc1` [Compound 207, N-(4-cyanophenyl)-3-{4-[(dimethylamino)methyl]phenyl}-N-methylimidazo[1,2-a]pyrazine-6-carboxamide] to `CN(C(=O)c1cn2c(-c3ccc(OC(F)F)cc3)cnc2cn1)c1ccc(C#N)cc1` [Compound 214, N-(4-cyanophenyl)-3-[4-(difluoromethoxy)phenyl]-N-methylimidazo[1,2-a]pyrazine-6-carboxamide], the EC50 falls from 4600 nM to 31 nM (150-fold). The second is the more potent here.

First: NC(=O)c1ccc(-c2cn3c(-c4ccc(C(N)=O)cc4)cnc3cn2)cc1 [Compound 210, 4-[3-(4-carbamoylphenyl)imidazo[1,2-a]pyrazin-6-yl]benzamide]
Second: Cc1ccc(N(C)Cc2cn3c(-c4ccc(C(N)=O)cc4)cnc3cn2)nc1 [Compound 233, 4-(6-{[methyl(5-methylpyridin-2-yl)amino]methyl}imidazo[1,2-a]pyrazin-3-yl)benzamide]
The EC50 of the first is 14-fold higher: 1980 nM for the first, 138 nM for the second.

Compared with `CN(C(=O)c1cn2c(-c3ccc(NC(=O)[C@@H](N)C4CCCCC4)cc3)cnc2cn1)c1ccc(C#N)cc1` [Compound 212, 3-{4-[(2S)-2-amino-2-cyclohexylacetamido]phenyl}-N-(4-cyanophenyl)-N-methylimidazo[1,2-a]pyrazine-6-carboxamide], `COC(=O)Nc1ccc(-c2cnc3cnc(CN(C)c4ccc(C#N)cc4)cn23)cc1` [Compound 225, methyl N-[4-(6-{[(4-cyanophenyl)(methyl)amino]methyl}imidazo[1,2-a]pyrazin-3-yl)phenyl]carbamat] is 3.7-fold lower in EC50: 137 nM for the first, 37 nM for the second. The second is the more potent here.

Compared with `CN(C(=O)c1cn2c(-c3ccc(N4CCCCC4)cc3)cnc2cn1)c1ccc(Cl)nc1` [Compound 216, N-(6-chloropyridin-3-yl)-N-methyl-3-[4-(piperidin-1-yl)phenyl]imidazo[1,2-a]pyrazine-6-carboxamide], `CN(C(=O)c1cn2c(-c3ccc(-c4ccn[nH]4)cc3)cnc2cn1)c1ccc(Cl)nc1` [Compound 224, N-(6-chloropyridin-3-yl)-N-methyl-3-[4-(1H-pyrazol-5-yl)phenyl]imidazo[1,2-a]pyrazine-6-carboxamide] is 38-fold lower in EC50: 5710 nM for the first, 149 nM for the second. The second is the more potent here.

First: CN(C(=O)c1cn2c(-c3ccc(C(F)(F)F)cc3)cnc2cn1)c1ccc(Cl)cc1 [Compound 217, N-(4-chlorophenyl)-N-methyl-3-[4-(trifluoromethyl)phenyl]imidazo[1,2-a]pyrazine-6-carboxamide]
Second: COc1ccc(-c2cnc3cnc(C(=O)N(C)c4ccc(Cl)cc4)cn23)cc1 [Compound 219, N-(4-chlorophenyl)-3-(4-methoxyphenyl)-N-methylimidazo[1,2-a]pyrazine-6-carboxamide]
The EC50 of the first is 1.8-fold lower: 36 nM for the first, 63 nM for the second.

Compared with `O=C(c1cn2c(-c3ccc(C(F)(F)F)cc3)cnc2cn1)N1CCCc2cc(Cl)ccc21` [Compound 218, 6-chloro-1-({3-[4-(trifluoromethyl)phenyl]imidazo[1,2-a]pyrazin-6-yl}carbonyl)-1,2,3,4-tetrahydroquinoline], `CC1(C)CCc2cc(F)ccc2N1C(=O)c1cn2c(-c3ccc(C(F)(F)F)cc3)cnc2cn1` [Compound 230, 6-fluoro-2,2-dimethyl-1-({3-[4-(trifluoromethyl)phenyl]imidazo[1,2-a]pyrazin-6-yl}carbonyl)-1,2,3,4-tetrahydroquinoline] is 32-fold lower in EC50: 680 nM for the first, 21 nM for the second. The second is the more potent here.

`Cc1cnc(Cl)c(N(C)C(=O)c2cn3c(-c4ccc(C(F)(F)F)cc4)cnc3cn2)c1` [Compound 220, N-(2-chloro-5-methylpyridin-3-yl)-N-methyl-3-[4-(trifluoromethyl)phenyl]imidazo[1,2-a]pyrazine-6-carboxamide] and `CN(C(=O)c1cn2c(-c3ccc(C(F)(F)F)cc3)cnc2cn1)c1ncccc1F` [Compound 221, N-(3-fluoropyridin-2-yl)-N-methyl-3-[4-(trifluoromethyl)phenyl]imidazo[1,2-a]pyrazine-6-carboxamide] are within 1.5-fold of each other in EC50: 4040 nM for the first, 4970 nM for the second.

Going from `CC(=O)Nc1ccc(-c2cnc3cnc(CN(C)c4ccc(C#N)cc4)cn23)cn1` [Compound 226, N-[5-(6-{[(4-cyanophenyl)(methyl)amino]methyl}imidazo[1,2-a]pyrazin-3-yl)pyridin-2-yl]acetamide] to `CN(Cc1cn2c(-c3ccc(C(F)(F)F)cc3)cnc2cn1)c1ccc(Cl)nc1` [Compound 231, 6-chloro-N-methyl-N-({3-[4-(trifluoromethyl)phenyl]imidazo[1,2-a]pyrazin-6-yl}methyl)pyridin-3-amine], the EC50 rises from 37 nM to 74 nM (2-fold).

Going from `CN(C(=O)c1cn2c(-c3ccc(-c4nnc(N)o4)cc3)cnc2cn1)c1ccc(F)cc1` [Compound 227, 3-[4-(5-amino-1,3,4-oxadiazol-2-yl)phenyl]-N-(4-fluorophenyl)-N-methylimidazo[1,2-a]pyrazine-6-carboxamide] to `CC1(C)CCc2cc(F)ccc2N1C(=O)c1cn2c(-c3ccc(C(N)=O)cc3)cnc2cn1` [Compound 229, 4-{6-[(6-fluoro-2,2-dimethyl-1,2,3,4-tetrahydroquinolin-1-yl)carbonyl]imidazo[1,2-a]pyrazin-3-yl}benzamide], the EC50 falls from 40 nM to 19 nM (2.1-fold).

For `Fc1ccc2c(c1)CCCN2Cc1cn2c(-c3ccc(C(F)(F)F)cc3)cnc2cn1` [Compound 234, 6-fluoro-1-({3-[4-(trifluoromethyl)phenyl]imidazo[1,2-a]pyrazin-6-yl}methyl)-1,2,3,4-tetrahydroquinoline], the EC50 was 148 nM.
